These results are taken from patent US7504400B2, “MTP inhibiting aryl piperydines or piperazines substituted with 5-membered heterocycles” (Janssen Pharmaceutica N.V., priority 2004, dated 2009).

Where a name gives a salt, the structure may show the parent alone.

The first data set has as its system Secretion of ApoB. As to the kind of experiment: Quantification of the secretion of ApoB in HepG2 cells. In kind it is cell-based. The conditions noted are these: Homo sapiens, HepG2, 24 h, 24 hours of incubation with test compound, immunoprecipitation of apoB from medium, read-out: pIC50 value (=-log IC50 value), secretion of ApoB (converted). In short, it runs like this: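 At 70% confluency, HepG2 cells in MEM with 10% FCS received compound or DMSO carrier (0.4% final) for 24 h. Secreted apoB in cleared medium immunoprecipitated with sheep anti-apoB then rabbit anti-sheep antibody (24 h each, 8° C); pellet radioactivity counted by liquid scintillation; IC50 expressed as pIC50.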
As to `CC(C)n1ncn(-c2ccc(N3CCN(C(C(=O)Nc4ccc5c(c4)CCC5)c4cccnc4)CC3)cc2)c1=O` (centres unmarked) [Compound 209], the concentration for half-maximal inhibition (IC50) is 31.6 to 316 nM.
Consider `CCOC(=O)CC(NC(=O)C(c1ccccc1)N1CCN(c2ccc(N3CCN(C(C)C)C3=O)cc2)CC1)c1ccc2c(c1)OCO2` (centres unmarked) [Compound 359], for which the IC50 is 316 to 3160 nM.
Regarding `CCOC(=O)c1cc(NC(=O)C(c2ccccc2)C2CCN(c3ccc(-n4cnn(C(C)c5ccccc5)c4=O)cc3)CC2)ccc1C` (centres unmarked) [Compound 369], the IC50 was 31.6 to 316 nM.
Consider `CCOC(=O)c1cc(NC(=O)C(c2ccccc2)C2CCN(c3ccc(-n4cnn(C(C)C)c4=O)cc3)CC2)ccc1C` (centres unmarked) [Compound 370], for which the 50% inhibitory concentration (IC50) is 31.6 to 316 nM.
Consider `CCOC(=O)c1cc(NC(=O)CC2CCN(c3ccc(-n4cnn(C(C)c5ccccc5)c4=O)cc3)CC2)ccc1C` (centres unmarked) [Compound 371], for which the IC50 was 31.6 to 316 nM.
For `CCOC(=O)c1cc(NC(=O)CC2CCN(c3ccc(-n4cnn(C(C)C)c4=O)cc3)CC2)ccc1C` [Compound 372], the IC50 is 316 to 3160 nM.
As for `CCOC(=O)c1cc(NC(=O)C(Cc2ccccc2)C2CCN(c3ccc(-n4cnn(C(C)c5ccccc5)c4=O)cc3)CC2)ccc1C` (centres unmarked) [Compound 373], the IC50 was 316 to 3160 nM.
As to `CCOC(=O)c1cc(NC(=O)C(Cc2ccccc2)C2CCN(c3ccc(-n4cnn(C(C)C)c4=O)cc3)CC2)ccc1C` (centres unmarked) [Compound 374], the IC50 is 316 to 3160 nM.
Regarding `CCOC(=O)c1ccc(CNC(=O)C(c2ccccc2)C2CCN(c3ccc(-n4cnn(C(C)c5ccccc5)c4=O)cc3)CC2)cc1C` (centres unmarked) [Compound 375], the 50% inhibitory concentration (IC50) is 31.6 to 316 nM.
In the case of `CCOC(=O)c1ccc(CNC(=O)C(c2ccccc2)C2CCN(c3ccc(-n4cnn(C(C)C)c4=O)cc3)CC2)cc1C` (centres unmarked) [Compound 376], the IC50 is 31.6 to 316 nM.
In the case of `CCOC(=O)c1ccc(CNC(=O)CC2CCN(c3ccc(-n4cnn(C(C)c5ccccc5)c4=O)cc3)CC2)cc1C` (centres unmarked) [Compound 377], the IC50 was 31.6 to 316 nM.
Consider `CCOC(=O)c1ccc(CNC(=O)CC2CCN(c3ccc(-n4cnn(C(C)C)c4=O)cc3)CC2)cc1C` [Compound 378], for which the half-maximal inhibitory concentration (IC50) was 31.6 to 316 nM.
Consider `CCOC(=O)c1ccc(CNC(=O)C(Cc2ccccc2)C2CCN(c3ccc(-n4cnn(C(C)c5ccccc5)c4=O)cc3)CC2)cc1C` (centres unmarked) [Compound 379], for which the half-inhibitory concentration (IC50) was 316 to 3160 nM.
The same measure, in the same setting: with `CCOC(=O)c1ccc(CNC(=O)C(Cc2ccccc2)C2CCN(c3ccc(-n4cnn(C(C)C)c4=O)cc3)CC2)cc1C` (centres unmarked) [Compound 380] the figure was 316 to 3160 nM; with `CCOC(=O)c1cc(CNC(=O)C(c2ccccc2)C2CCN(c3ccc(-n4cnn(C(C)c5ccccc5)c4=O)cc3)CC2)ccc1C` (centres unmarked) [Compound 381], less than 31.6 nM; with `CCOC(=O)c1cc(CNC(=O)CC2CCN(c3ccc(-n4cnn(C(C)C)c4=O)cc3)CC2)ccc1C` [Compound 382], 31.6 to 316 nM.
Consider `CCOC(=O)c1cc(CNC(=O)C(Cc2ccccc2)C2CCN(c3ccc(-n4cnn(C(C)c5ccccc5)c4=O)cc3)CC2)ccc1C` (centres unmarked) [Compound 383], for which the half-maximal inhibitory concentration (IC50) is 316 to 3160 nM.
In the case of `CCOC(=O)c1cc(CNC(=O)C(Cc2ccccc2)C2CCN(c3ccc(-n4cnn(C(C)C)c4=O)cc3)CC2)ccc1C` (centres unmarked) [Compound 384], the half-maximal inhibitory concentration (IC50) is 316 to 3160 nM.
Turning to `CCOC(=O)CC1CCN(c2ccc(-n3cnn(C(C)C)c3=O)cc2)CC1` [Compound 385], the IC50 is 316 to 3160 nM.
Same read-out and setting: as for `CCOC(=O)CC1CCN(c2ccc(-n3cnn(C(C)c4ccccc4)c3=O)cc2)CC1` (centres unmarked) [Compound 386], the figure is 316 to 3160 nM; as for `CCOC(=O)[C@@H](C)NC(=O)CC1CCN(c2ccc(-n3cnn(C(C)c4ccccc4)c3=O)cc2)CC1` (some centres unmarked) [Compound 391], 316 to 3160 nM.
Regarding `CCOC(=O)[C@@H](NC(=O)CC1CCN(c2ccc(-n3cnn(C(C)c4ccccc4)c3=O)cc2)CC1)C(C)C` (some centres unmarked) [Compound 392], the IC50 was 316 to 3160 nM.
Same read-out and setting: as for `CCOC(=O)[C@H](NC(=O)CC1CCN(c2ccc(-n3cnn(C(C)c4ccccc4)c3=O)cc2)CC1)C(C)C` (some centres unmarked) [Compound 393], the figure is 31.6 to 316 nM; as for `CCOC(=O)[C@H](NC(=O)CC1CCN(c2ccc(-n3cnn(C(C)c4ccccc4)c3=O)cc2)CC1)c1ccccc1` (some centres unmarked) [Compound 394], 31.6 to 316 nM; as for `CCOC(=O)[C@@H](NC(=O)CC1CCN(c2ccc(-n3cnn(C(C)c4ccccc4)c3=O)cc2)CC1)c1ccccc1` (some centres unmarked) [Compound 395], 316 to 3160 nM.
On to `CCOC(=O)[C@@H](Cc1ccccc1)NC(=O)CC1CCN(c2ccc(-n3cnn(C(C)c4ccccc4)c3=O)cc2)CC1` (some centres unmarked) [Compound 396], for which the IC50 was 316 to 3160 nM.
Regarding `CCOC(=O)CC[C@H](NC(=O)CC1CCN(c2ccc(-n3cnn(C(C)c4ccccc4)c3=O)cc2)CC1)C(=O)OCC` (some centres unmarked) [Compound 397], the concentration for half-maximal inhibition (IC50) is 316 to 3160 nM.
On the same count and under the same terms, as for `CCOC(=O)[C@H](CC(C)C)NC(=O)CC1CCN(c2ccc(-n3cnn(C(C)c4ccccc4)c3=O)cc2)CC1` (some centres unmarked) [Compound 398], the figure is 316 to 3160 nM; as for `COC(=O)C(NC(=O)CC1CCN(c2ccc(-n3cnn(C(C)c4ccccc4)c3=O)cc2)CC1)C(C)C` (centres unmarked) [Compound 401], 316 to 3160 nM; as for `CCOC(=O)CCNC(=O)CC1CCN(c2ccc(-n3cnn(C(C)c4ccccc4)c3=O)cc2)CC1` (centres unmarked) [Compound 402], 316 to 3160 nM.
The same measure, in the same setting: with `CCOC(=O)C(C)NC(=O)CC1CCN(c2ccc(-n3cnn(C(C)c4ccccc4)c3=O)cc2)CC1` (centres unmarked) [Compound 403] the figure was 316 to 3160 nM.
Take `CCOC(=O)CC(NC(=O)CC1CCN(c2ccc(-n3cnn(C(C)c4ccccc4)c3=O)cc2)CC1)c1ccc2c(c1)OCO2` (centres unmarked) [Compound 404]: the IC50 was 316 to 3160 nM.

Test system in the next data set: not given
Assay: not given
Conditions: not given
In the case of `CCCN(CCC)C(=O)C(CCN1CCN(c2ccc(-n3cnn(C(C)C)c3=O)cc2)CC1)c1ccccc1` (centres unmarked) (as salt: salt) [Compound 2], the melting point is 165 °C.
`CC(C)n1ncn(-c2ccc(N3CCN(C(C(=O)Nc4ccc5c(c4)CCC5)c4cccnc4)CC3)cc2)c1=O` (centres unmarked) [Compound 209] showed a melting point of 198 to 200 °C.
Take `CCOC(=O)C(c1cccnc1)N1CCN(c2ccc(-n3cnn(C(C)C)c3=O)cc2)CC1` (centres unmarked) [Compound 302]: the melting point lay in the range of 142 to 143 °C.
